Reference: article PMC12680558, “Design, Synthesis, In Silico Absorption, Distribution, Metabolism, and Elimination and Molecular Docking Studies of Thiazole‐Based Furan Derivatives, and Their Biological Evaluation for Alzheimer Disease Therapy” (ChemistryOpen, 2025)
Several values for one entry are separate records, joined by “and”; a condition that tells them apart may be missing. Identical values can stand only once.

Columns and labels:
[1] = ABTS radical scavenging assay; conditions: 2 µg mL^−1
Experimental: (§1) The methods outlined by Blois and Re were used to assess the DPPH^ · and ABTS^+· free radical scavenging activities, respectively.^[ [58], [59] ^– [60] ^] A series of stock concentrations of synthesized thiazole‐based furan derivatives (2a‐2m) was prepared. For DPPH assay, a radical solution of 1 mM DPPH solution was prepared. Final concentrations were adjusted by diluting the sample stock solutions with ethanol to a total volume of 2 mL and then adding 0.5 mL of DPPH solution to each tube. The mixtures were incubated at room temperature and protected from light for 30 min. Absorbance was measured at 517 nm. In the ABTS test, 7 mM ABTS solution was prepared, and radical cations were formed by adding 2.45 mM persulfate. The absorbance of the control solution was adjusted to 0.700 ± 0.025 at 734 nm. For analysis, 0.5 mL of ABTS^+· radical solution was added to each sample. The absorbance at 734 nm was then measured against the blank solution following a 30 min incubation period.

BChE = target: T1, BChE (Equus caballus, UniProt P81908); test: biochemical; conditions: for Ki: Lineweaver–Burk plots; for IC50: substrate BChI, 37 °C
T1 construct: BChE (from horse serum); from tissue; host or cells: horse serum

AChE = target: T2, AChE (Electrophorus electricus, UniProt O42275); test: biochemical; conditions: for Ki: Lineweaver–Burk plots; for AChE/BChE SI (selectivity index): SI = KI (AChE)/KI (BChE); for IC50: substrate ATChI, 37 °C
T2 construct: AChE (from electric eels); from tissue
Experimental: Activity variations were tracked at 37 °C using acetylthiocholine iodide (ATChI) as a substrate for AChE (from electric eels) and butyrylcholine iodide (BChI) as a substrate for BChE (from horse serum).
Using at least five different inhibitor concentrations against the AChE and BChE enzymes, the inhibitory effects of thiazole‐based furan derivatives were assessed across a range of inhibitor doses. […] Furthermore, Lineweaver–Burk plots were used to assess inhibition types and inhibition constants (K I), providing thorough information on the kinetic behavior of these inhibitors.^[ [64] ^, [65] ^]

[2] = DPPH radical scavenging assay; conditions: 2 µg mL^−1
Experimental: as §1

T2 sequence (O42275 24-633): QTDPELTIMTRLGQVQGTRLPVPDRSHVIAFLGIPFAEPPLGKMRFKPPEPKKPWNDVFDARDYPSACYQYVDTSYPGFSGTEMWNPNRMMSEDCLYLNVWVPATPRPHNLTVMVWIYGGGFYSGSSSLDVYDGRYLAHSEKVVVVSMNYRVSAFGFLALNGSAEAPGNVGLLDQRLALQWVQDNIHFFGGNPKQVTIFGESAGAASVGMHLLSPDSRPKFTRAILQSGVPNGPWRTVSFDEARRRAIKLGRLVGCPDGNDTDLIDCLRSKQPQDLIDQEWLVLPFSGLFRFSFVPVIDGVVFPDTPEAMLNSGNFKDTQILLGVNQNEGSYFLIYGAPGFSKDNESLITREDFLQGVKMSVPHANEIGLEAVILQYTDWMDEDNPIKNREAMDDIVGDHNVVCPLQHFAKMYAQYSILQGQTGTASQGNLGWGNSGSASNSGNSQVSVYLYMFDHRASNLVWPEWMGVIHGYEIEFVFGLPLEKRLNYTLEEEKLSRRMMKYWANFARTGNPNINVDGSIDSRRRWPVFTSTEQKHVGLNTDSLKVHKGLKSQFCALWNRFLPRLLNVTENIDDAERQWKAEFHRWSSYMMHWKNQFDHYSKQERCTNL
T1 sequence (P81908 whole entry): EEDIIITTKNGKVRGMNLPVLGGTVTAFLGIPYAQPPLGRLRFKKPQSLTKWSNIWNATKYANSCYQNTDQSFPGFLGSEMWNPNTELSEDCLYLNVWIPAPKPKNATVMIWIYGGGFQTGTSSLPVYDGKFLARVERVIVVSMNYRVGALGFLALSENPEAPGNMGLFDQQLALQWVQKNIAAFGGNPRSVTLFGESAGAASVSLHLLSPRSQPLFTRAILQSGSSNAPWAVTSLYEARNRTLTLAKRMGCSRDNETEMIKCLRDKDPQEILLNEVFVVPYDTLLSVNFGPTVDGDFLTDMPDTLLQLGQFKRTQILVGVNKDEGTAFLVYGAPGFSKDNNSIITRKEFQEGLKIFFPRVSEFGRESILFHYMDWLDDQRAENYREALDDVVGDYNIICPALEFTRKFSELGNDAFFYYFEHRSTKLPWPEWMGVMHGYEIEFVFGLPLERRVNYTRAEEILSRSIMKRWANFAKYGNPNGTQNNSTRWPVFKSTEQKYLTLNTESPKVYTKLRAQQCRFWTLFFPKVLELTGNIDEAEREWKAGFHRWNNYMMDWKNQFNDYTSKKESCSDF

SMILES	ABTS percent radical scavenging [1]	Ki (BChE) [µM]	IC50 (BChE) [µM]	Ki (AChE) [µM]	AChE/BChE SI (selectivity index) (AChE)	IC50 (AChE) [µM]	DPPH percent radical scavenging [2]
OCc1ccc(C=NNc2nc(-c3ccc(Cl)cc3)cs2)o1 [2k, 4‐(4‐Chlorophenyl)‐2‐(2‐((5‐hydroxymethylfuran‐2‐yl)methylene)hydrazineyl)thiazole]	11.842 ± 0.982%	8.51 ± 0.684	12.4	39.4 ± 3.25	4.629	57.3	6.470 ± 0.574%
OCc1ccc(C=NNc2nc(-c3ccc(Cl)cc3Cl)cs2)o1 [2l, 4‐(2,4‐Dichlorophenyl)‐2‐(2‐((5‐Hydroxymethylfuran‐2‐Yl)methylene)hydrazineyl) Thiazole]	21.053 ± 1.793%	5.74 ± 0.384	8.35	42.1 ± 3.79	7.345	61.3	4.436 ± 0.386%
OCc1ccc(C=NNc2nc(-c3ccccc3)cs2)o1 [2j, 4‐Phenyl‐2‐(2‐((5‐hydroxymethylfuran‐2‐yl)methylene)hydrazineyl)thiazole]	28.158 ± 2.075%	13.6 ± 1.05	19.7	42.5 ± 3.49	3.134	61.9	9.057 ± 0.834%
O=[N+]([O-])c1cccc(-c2csc(NN=Cc3ccc(CO)o3)n2)c1 [2m, 4‐(3‐Nitrophenyl)‐2‐(2‐((5‐Hydroxymethylfuran‐2‐Yl)methylene)hydrazineyl)thiazole]	30.789 ± 2.489%	14.9 ± 1.35	21.7	59.6 ± 4.82	4.001	86.6	11.275 ± 1.021%
OCc1ccc(C=NNc2nc(-c3ccc(F)cc3F)cs2)o1 [2i, 4‐(2,4‐Difluorophenyl)‐2‐(2‐((5‐Hydroxymethylfuran‐2‐Yl)methylene)hydrazineyl) Thiazole]	31.842% and 31.842 ± 2.785%	6.52 ± 0.428	9.49	43.4 ± 3.56	6.650	63.1	13.309% and 13.309 ± 1.278%
OCc1ccc(C=NNc2nc(-c3ccc(Cl)c(Cl)c3)cs2)o1 [2h, 4‐(3,4‐Dichlorophenyl)‐2‐(2‐((5‐Hydroxymethylfuran‐2‐Yl)methylene)hydrazineyl) Thiazole]	12.106 ± 1.036%	8.21 ± 0.722	11.9	26.7 ± 2.04	3.257	38.9	5.361 ± 0.486%
OCc1ccc(C=NNc2nc(-c3ccc(Br)cc3)cs2)o1 [2f, 4‐(4‐Bromophenyl)‐2‐(2‐((5‐Hydroxymethylfuran‐2‐Yl)methylene)hydrazineyl)thiazole]	22.107 ± 1.728%	4.76 ± 0.321	6.93	26.5 ± 1.81	5.557	38.5	7.579 ± 0.648%
O=[N+]([O-])c1ccc(-c2csc(NN=Cc3ccc(CO)o3)n2)cc1 [2a, 4‐(4‐Nitrophenyl)‐2‐(2‐((5‐hydroxymethylfuran‐2‐yl)methylene)hydrazineyl)thiazole]	56.842% and 56.842 ± 4.346%	6.03 ± 0.523	8.77	14.9 ± 1.05	2.469	21.7	12.202% and 12.202 ± 0.965%
Cc1c(C)c2c(c(C)c1O)CCC(C)(C(=O)O)O2 (stereo not drawn) [Trolox, reference compound]	29.211 ± 2.043%						13.863 ± 1.023%
OCc1ccc(C=NNc2nc(-c3ccc(F)cc3)cs2)o1 [2d, 4‐(4‐Fluorophenyl)‐2‐(2‐((5‐Hydroxymethylfuran‐2‐Yl)methylene)hydrazineyl)thiazole]	6.316 ± 0.584%	7.44 ± 0.565	10.8	36.7 ± 3.22	4.925	53.3	1.848 ± 0.095%
COc1ccc(-c2csc(NN=Cc3ccc(CO)o3)n2)cc1 [2b, 4‐(4‐Methoxyphenyl)‐2‐(2‐((5‐Hydroxymethylfuran‐2‐Yl)methylene)hydrazineyl)thiazole]	2.105 ± 0.176%	23.82 ± 0.132	34.7	14.5 ± 1.12	0.609	21.1	1.109 ± 0.762%
OCc1ccc(C=NNc2nc(-c3ccc(-c4ccccc4)cc3)cs2)o1 [2e, 4‐([1,1^′‐Biphenyl]‐4‐Yl)‐2‐(2‐((5‐Hydroxymethylfuran‐2‐Yl)methylene)hydrazineyl) Thiazole]	17.105 ± 1.248%	6.44 ± 0.452	9.36	34 ± 2.1	5.287	49.5	4.621 ± 0.372%
Cc1ccc(-c2csc(NN=Cc3ccc(CO)o3)n2)cc1 [2g, 4‐(4‐Methylphenyl)‐2‐(2‐((5‐Hydroxymethylfuran‐2‐Yl)methylene)hydrazineyl)thiazole]	11.053 ± 1.012%	12.9 ± 1.21	18.7	36.7 ± 2.56	2.847	53.3	4.067 ± 0.289%
N#Cc1ccc(-c2csc(NN=Cc3ccc(CO)o3)n2)cc1 [2c, 4‐(4‐Cyanophenyl)‐2‐(2‐((5‐Hydroxymethylfuran‐2‐Yl)methylene)hydrazineyl)thiazole]	15.789 ± 1.365%	9.53 ± 0.824	13.9	31.8 ± 2.86	3.334	46.2	3.512 ± 0.237%
